Measured values: patent US20260028365A1 (BIOGEN MA INC., priority 2022, published 2026)
Where two headings read alike, the source gives them in different places.

Legend:
[1] = target: JH2 domain of human Tyk2 (Homo sapiens (Human), UniProt P29597); experiment: JH2 Biochemical Assay (TR-FRET probe displacement); assay type: binding
[2] = target: Tyk2 (Homo sapiens (Human), UniProt P29597); experiment: pSTAT4 Cell Assay (MSD, NK92 cells); assay type: cell-based
[3] = JH2 domain of human Tyk2, TR-FRET probe displacement
[4] = TR-FRET probe displacement, JH2 domain of human Tyk2
[5] = TR-FRET probe displacement, JH2 domain

Sequence of JH2 domain of human Tyk2 (P29597 575-876): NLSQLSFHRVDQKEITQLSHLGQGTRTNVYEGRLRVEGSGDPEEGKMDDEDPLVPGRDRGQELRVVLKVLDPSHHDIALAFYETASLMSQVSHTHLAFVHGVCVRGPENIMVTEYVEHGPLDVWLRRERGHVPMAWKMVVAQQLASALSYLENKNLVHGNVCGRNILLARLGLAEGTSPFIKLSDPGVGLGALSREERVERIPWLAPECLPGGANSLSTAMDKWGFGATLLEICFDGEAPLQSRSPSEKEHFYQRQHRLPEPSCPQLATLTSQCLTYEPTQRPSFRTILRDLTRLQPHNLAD
Sequence of Tyk2 (P29597 whole entry, the tested form may be a part): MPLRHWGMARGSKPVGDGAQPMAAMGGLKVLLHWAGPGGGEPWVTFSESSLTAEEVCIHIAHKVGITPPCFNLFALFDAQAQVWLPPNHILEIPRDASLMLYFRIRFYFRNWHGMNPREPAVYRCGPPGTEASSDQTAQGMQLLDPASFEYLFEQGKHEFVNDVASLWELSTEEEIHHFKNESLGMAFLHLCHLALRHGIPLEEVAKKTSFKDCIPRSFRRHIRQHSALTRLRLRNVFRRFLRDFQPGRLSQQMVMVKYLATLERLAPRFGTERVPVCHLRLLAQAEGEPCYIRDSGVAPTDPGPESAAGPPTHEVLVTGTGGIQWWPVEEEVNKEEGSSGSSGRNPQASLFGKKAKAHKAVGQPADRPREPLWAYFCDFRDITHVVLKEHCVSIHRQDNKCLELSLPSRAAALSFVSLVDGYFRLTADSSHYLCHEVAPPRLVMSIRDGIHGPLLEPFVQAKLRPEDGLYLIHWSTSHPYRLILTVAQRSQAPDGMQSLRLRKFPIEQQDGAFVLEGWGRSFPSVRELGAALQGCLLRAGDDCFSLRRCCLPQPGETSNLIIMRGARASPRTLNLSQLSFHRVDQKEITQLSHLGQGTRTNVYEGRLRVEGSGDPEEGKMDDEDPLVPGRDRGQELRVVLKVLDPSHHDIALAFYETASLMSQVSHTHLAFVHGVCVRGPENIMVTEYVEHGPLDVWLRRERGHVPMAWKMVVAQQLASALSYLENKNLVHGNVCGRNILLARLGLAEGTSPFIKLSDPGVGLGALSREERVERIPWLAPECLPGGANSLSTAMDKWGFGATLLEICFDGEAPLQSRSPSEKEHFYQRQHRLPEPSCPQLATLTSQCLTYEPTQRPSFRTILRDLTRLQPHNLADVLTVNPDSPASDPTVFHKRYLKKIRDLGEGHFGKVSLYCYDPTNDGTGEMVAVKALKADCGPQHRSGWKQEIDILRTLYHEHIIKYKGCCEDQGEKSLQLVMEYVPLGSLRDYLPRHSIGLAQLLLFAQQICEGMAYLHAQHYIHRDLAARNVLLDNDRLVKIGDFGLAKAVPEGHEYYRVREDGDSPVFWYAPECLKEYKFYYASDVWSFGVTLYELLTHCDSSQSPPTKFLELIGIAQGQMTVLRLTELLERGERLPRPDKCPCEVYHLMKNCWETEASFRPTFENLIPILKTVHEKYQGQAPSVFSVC

## CC(=O)Nc1cc(Nc2cc(C)nc(C(C)(F)F)n2)c(OCc2cccnc2C)cn1 [Example 469, N-(4-((2-(1,1-difluoroethyl)-6-methylpyrimidin-4-yl)amino)-5-((2-methylpyridin-3-yl)methoxy)pyridin-2-yl)acetamide]
[1]; [3]
  IC50: ≤ 10 nM
[2]; MSD
  IC50: 100 to 1000 nM

## CC(=O)Nc1cc(Nc2ccnc(C(C)(F)F)n2)c(-c2ncn(C)n2)cn1 [Example 165, N-(4-((2-(1,1-difluoroethyl)pyrimidin-4-yl)amino)-5-(1-methyl-1H-1,2,4-triazol-3-yl)pyridin-2-yl)acetamide]
[1]; [4]
  IC50: 10 to 100 nM
[2]; MSD
  IC50: 100 to 1000 nM

## CCOc1cnc(NC(C)=O)cc1Nc1cc(Cl)nc(C(C)(F)F)n1 [Example 372, N-(4-((6-chloro-2-(1,1-difluoroethyl)pyrimidin-4-yl)amino)-5-ethoxypyridin-2-yl)acetamide]
[1]; [3]
  IC50: ≤ 10 nM
[2]; MSD
  IC50: 10 to 100 nM

## CCOc1cnc(NC(C)=O)cc1Nc1cc(-c2ccc(OC)nc2)nc(C(C)(F)F)n1 [Example 369, N-(4-((2-(1,1-difluoroethyl)-6-(6-methoxypyridin-3-yl)pyrimidin-4-yl)amino)-5-ethoxypyridin-2-yl)acetamide]
[1]; [4]
  IC50: ≤ 10 nM
[2]; MSD
  IC50: 10 to 100 nM

## CC(=O)Nc1cc(Nc2cc(C)nc(C(C)(F)F)n2)c(OCc2cocn2)cn1 [Example 505, N-(4-((2-(1,1-difluoroethyl)-6-methylpyrimidin-4-yl)amino)-5-(oxazol-4-ylmethoxy)pyridin-2-yl)acetamide]
[1]; [3]
  IC50: ≤ 10 nM
[2]; MSD
  IC50: 10 to 100 nM

## CC(=O)Nc1cc(Nc2cc(C)nc(C(C)(F)F)n2)c(-c2ccc(C)cn2)cn1 [Example 593, N-(4′-((2-(1,1-difluoroethyl)-6-methylpyrimidin-4-yl)amino)-5-methyl-[2,3′-bipyridin]-6′-yl)acetamide]
[1]; [3]
  IC50: ≤ 10 nM
[2]; MSD
  IC50: ≤ 10 nM

## CC(=O)Nc1cc(Nc2cccc(C(C)(F)F)n2)c(-c2ccnc(C)n2)cn1 [Example 172, N-(4-((6-(1,1-difluoroethyl)pyridin-2-yl)amino)-5-(2-methylpyrimidin-4-yl)pyridin-2-yl)acetamide]
[1]; [4]
  IC50: ≤ 10 nM
[2]; MSD
  IC50: ≤ 10 nM

## CC(=O)Nc1cc(Nc2cc(C)nc(C(C)(F)F)n2)c(OCC2CC2(F)F)cn1 (stereo not drawn) [Example 74, N-(5-((2,2-difluorocyclopropyl)methoxy)-4-((2-(1,1-difluoroethyl)-6-methylpyrimidin-4-yl)amino)pyridin-2-yl)acetamide]
[1]; [4]
  IC50: ≤ 10 nM
[2]; MSD
  IC50: 10 to 100 nM

## COc1nc(-c2cnc(NC(C)=O)cc2Nc2cc(C)nc(C(C)(F)F)n2)cs1 [Example 617, N-(4-((2-(1,1-difluoroethyl)-6-methylpyrimidin-4-yl)amino)-5-(2-methoxythiazol-4-yl)pyridin-2-yl)acetamide]
[1]; [3]
  IC50: ≤ 10 nM
[2]; MSD
  IC50: ≤ 10 nM

## CC(=O)Nc1cc(Nc2cc(C)nc(C(C)(F)F)n2)c(-c2cc(CN3CCN(C)CC3)n(C)n2)cn1 [Example 804, N-(4-((2-(1,1-difluoroethyl)-6-methylpyrimidin-4-yl)amino)-5-(1-methyl-5-((4-methylpiperazin-1-yl)methyl)-1H-pyrazol-3-yl)pyridin-2-yl)acetamide]
[1]; [5]
  IC50: ≤ 10 nM
[2]
  IC50: ≤ 10 nM

## CC(=O)Nc1cc(Nc2cc(C)nc(C(C)(F)F)n2)c(-c2cc(NC(C)C)cnn2)cn1 [Example 254, N-(4-((2-(1,1-difluoroethyl)-6-methylpyrimidin-4-yl)amino)-5-(5-(isopropylamino)pyridazin-3-yl)pyridin-2-yl)acetamide]
[1]; [4]
  IC50: ≤ 10 nM
[2]; MSD
  IC50: ≤ 10 nM

## CC(=O)Nc1cc(Nc2ccnc(C(C)(F)F)n2)c(-c2ccc(N3CCC4(COC4)C3)nn2)cn1 [Example 890, N-(5-(6-(2-oxa-6-azaspiro[3.4]octan-6-yl)pyridazin-3-yl)-4-((2-(1,1-difluoroethyl)pyrimidin-4-yl)amino)pyridin-2-yl)acetamide]
[1]; [5]
  IC50: ≤ 10 nM
[2]
  IC50: ≤ 10 nM

## COc1nc(C)cc(-c2cnc(NC(C)=O)cc2Nc2cc(C)nc(C(C)(F)F)n2)n1 [Example 156, N-(4-((2-(1,1-difluoroethyl)-6-methylpyrimidin-4-yl)amino)-5-(2-methoxy-6-methylpyrimidin-4-yl)pyridin-2-yl)acetamide]
[1]; [4]
  IC50: ≤ 10 nM
[2]; MSD
  IC50: ≤ 10 nM

## CCc1cc(Nc2cc(NC(C)=O)ncc2-c2cnn(CCOC)n2)nc(C(C)(F)F)n1 [Example 261, N-(4-((2-(1,1-difluoroethyl)-6-ethylpyrimidin-4-yl)amino)-5-(2-(2-methoxyethyl)-2H-1,2,3-triazol-4-yl)pyridin-2-yl)acetamide]
[1]; [4]
  IC50: ≤ 10 nM
[2]; MSD
  IC50: ≤ 10 nM

## CC(=O)Nc1cc(Nc2cc(C)nc(C(C)(F)F)n2)c(OCC2(C(F)(F)F)CC2)cn1 [Example 57, N-(4-((2-(1,1-difluoroethyl)-6-methylpyrimidin-4-yl)amino)-5-((1-(trifluoromethyl)cyclopropyl)methoxy)pyridin-2-yl)acetamide]
[1]; [4]
  IC50: ≤ 10 nM
[2]; MSD
  IC50: 10 to 100 nM

## CC(=O)Nc1cc(Nc2cc(C)nc(C(C)(F)F)n2)c(-c2cc(C)cnn2)cn1 [Example 252, N-(4-((2-(1,1-difluoroethyl)-6-methylpyrimidin-4-yl)amino)-5-(5-methylpyridazin-3-yl)pyridin-2-yl)acetamide]
[1]; [4]
  IC50: ≤ 10 nM
[2]; MSD
  IC50: ≤ 10 nM

## COc1cnc(NC(C)=O)cc1Nc1cc(OC2CC(F)(F)C2)nc(C(C)(F)F)n1 [Example 460, N-(4-((6-(3,3-difluorocyclobutoxy)-2-(1,1-difluoroethyl)pyrimidin-4-yl)amino)-5-methoxypyridin-2-yl)acetamide]
[1]; [3]
  IC50: ≤ 10 nM
[2]; MSD
  IC50: 10 to 100 nM

## COc1cnc(NC(C)=O)cc1Nc1cc(-c2cnc(N3CCOCC3)nc2)nc(C(C)(F)F)n1 [Example 390, N-(4-((2-(1,1-difluoroethyl)-2′-morpholino-[4,5′-bipyrimidin]-6-yl)amino)-5-methoxypyridin-2-yl)acetamide]
[1]; [3]
  IC50: 10 to 100 nM
[2]; MSD
  IC50: 100 to 1000 nM

## CC(=O)Nc1cc(Nc2cc(C)nc(C(C)(F)F)n2)c(-c2cc(C(C)C)ncn2)cn1 [Example 245, N-(4-((2-(1,1-difluoroethyl)-6-methylpyrimidin-4-yl)amino)-5-(6-isopropylpyrimidin-4-yl)pyridin-2-yl)acetamide]
[1]; [4]
  IC50: ≤ 10 nM
[2]; MSD
  IC50: 10 to 100 nM

## CC(=O)Nc1cc(Nc2cc(C)nc(C(C)(F)F)n2)c(OCCC(C)F)cn1 (stereo not drawn) [Example 444, N-(4-((2-(1,1-difluoroethyl)-6-methylpyrimidin-4-yl)amino)-5-(3-fluorobutoxy)pyridin-2-yl)acetamide]
[1]; [3]
  IC50: ≤ 10 nM
[2]; MSD
  IC50: 10 to 100 nM

## CC(=O)Nc1cc(Nc2ccnc(C(C)(F)F)n2)c(-c2cnc(N3CC4(COC4)C3)cn2)cn1 [Example 888, N-(5-(5-(2-oxa-6-azaspiro[3.3]heptan-6-yl)pyrazin-2-yl)-4-((2-(1,1-difluoroethyl)pyrimidin-4-yl)amino)pyridin-2-yl)acetamide]
[1]; [5]
  IC50: ≤ 10 nM
[2]
  IC50: 100 to 1000 nM

## CC(=O)Nc1cc(Nc2cc(C)nc(C(C)(F)F)n2)c(OCc2nc(C)co2)cn1 [Example 325, N-(4-((2-(1,1-difluoroethyl)-6-methylpyrimidin-4-yl)amino)-5-((4-methyloxazol-2-yl)methoxy)pyridin-2-yl)acetamide]
[1]; [4]
  IC50: ≤ 10 nM
[2]; MSD
  IC50: 10 to 100 nM

## COc1cc(-c2cnc(NC(C)=O)cc2Nc2cc(C)nc(C(C)(F)F)n2)nc(C)n1 [Example 155, N-(4-((2-(1,1-difluoroethyl)-6-methylpyrimidin-4-yl)amino)-5-(6-methoxy-2-methylpyrimidin-4-yl)pyridin-2-yl)acetamide]
[1]; [4]
  IC50: ≤ 10 nM
[2]; MSD
  IC50: 10 to 100 nM

## COc1cnc(NC(C)=O)cc1Nc1cc(-c2cc(C#N)c3nc(C)cn3c2)nc(C(C)(F)F)n1 [Example 402, N-(4-((6-(8-cyano-2-methylimidazo[1,2-a]pyridin-6-yl)-2-(1,1-difluoroethyl)pyrimidin-4-yl)amino)-5-methoxypyridin-2-yl)acetamide]
[1]; [3]
  IC50: 10 to 100 nM
[2]; MSD
  IC50: 100 to 1000 nM

## CC(=O)Nc1cc(Nc2ccnc(C(C)(F)F)n2)c(-c2cnc(N3C[C@H]4C[C@@H]3CO4)cn2)cn1 [Example 871, N-(5-(5-((1R,4R)-2-oxa-5-azabicyclo[2.2.1]heptan-5-yl)pyrazin-2-yl)-4-((2-(1,1-difluoroethyl)pyrimidin-4-yl)amino)pyridin-2-yl)acetamide]
[1]; [5]
  IC50: ≤ 10 nM
[2]
  IC50: 10 to 100 nM

## CCOc1cnc(NC(=O)CCOC)cc1Nc1cc(C)nc(C(C)(F)F)n1 [Example 27, N-(4-((2-(1,1-difluoroethyl)-6-methylpyrimidin-4-yl)amino)-5-ethoxypyridin-2-yl)-3-methoxypropanamide]
[1]; [4]
  IC50: ≤ 10 nM
[2]; MSD
  IC50: 100 to 1000 nM

## CC(=O)Nc1cc(Nc2cc(C)nc(C(C)(F)F)n2)c(OCc2cnn(C)c2)cn1 [Example 508, N-(4-((2-(1,1-difluoroethyl)-6-methylpyrimidin-4-yl)amino)-5-((1-methyl-1H-pyrazol-4-yl)methoxy)pyridin-2-yl)acetamide]
[1]; [3]
  IC50: ≤ 10 nM
[2]; MSD
  IC50: 10 to 100 nM

## COc1nccc(-c2cnc(NC(C)=O)cc2Nc2cc(C)nc(C(C)(F)F)n2)n1 [Example 179, N-(4-((2-(1,1-difluoroethyl)-6-methylpyrimidin-4-yl)amino)-5-(2-methoxypyrimidin-4-yl)pyridin-2-yl)acetamide]
[1]; [4]
  IC50: ≤ 10 nM
[2]; MSD
  IC50: ≤ 10 nM

## COCc1cnc(-c2cnc(NC(C)=O)cc2Nc2cc(C)nc(C(C)(F)F)n2)nc1 [Example 672, N-(4-((2-(1,1-difluoroethyl)-6-methylpyrimidin-4-yl)amino)-5-(5-(methoxymethyl)pyrimidin-2-yl)pyridin-2-yl)acetamide]
[1]; [3]
  IC50: ≤ 10 nM
[2]; MSD
  IC50: ≤ 10 nM

## CC(=O)Nc1cc(Nc2cc(C)nc(C(C)(F)F)n2)c(OC[C@@H]2CCC[C@H](C)O2)cn1 (stereo in doubt) [Example 442, Cis-rac-N-(4-((2-(1,1-difluoroethyl)-6-methylpyrimidin-4-yl)amino)-5-((6-methyltetrahydro-2H-pyran-2-yl)methoxy)pyridin-2-yl)acetamide]
[1]; [3]
  IC50: 10 to 100 nM
[2]; MSD
  IC50: 10 to 100 nM
